The source of these data is patent US9914737B2, “Triazolopyrimidinone or triazolopyridinone derivatives, and use thereof” (ST PHARM CO., LTD., priority 2014, dated 2018).

Structures can show the parent of a compound that is named as a salt.

One experiment has as its target T1, tankyrase 1 (Homo sapiens, UniProt O95271).
T1 construct: purchased Trevigen 4700-096-K
T1 sequence (O95271 1-1327): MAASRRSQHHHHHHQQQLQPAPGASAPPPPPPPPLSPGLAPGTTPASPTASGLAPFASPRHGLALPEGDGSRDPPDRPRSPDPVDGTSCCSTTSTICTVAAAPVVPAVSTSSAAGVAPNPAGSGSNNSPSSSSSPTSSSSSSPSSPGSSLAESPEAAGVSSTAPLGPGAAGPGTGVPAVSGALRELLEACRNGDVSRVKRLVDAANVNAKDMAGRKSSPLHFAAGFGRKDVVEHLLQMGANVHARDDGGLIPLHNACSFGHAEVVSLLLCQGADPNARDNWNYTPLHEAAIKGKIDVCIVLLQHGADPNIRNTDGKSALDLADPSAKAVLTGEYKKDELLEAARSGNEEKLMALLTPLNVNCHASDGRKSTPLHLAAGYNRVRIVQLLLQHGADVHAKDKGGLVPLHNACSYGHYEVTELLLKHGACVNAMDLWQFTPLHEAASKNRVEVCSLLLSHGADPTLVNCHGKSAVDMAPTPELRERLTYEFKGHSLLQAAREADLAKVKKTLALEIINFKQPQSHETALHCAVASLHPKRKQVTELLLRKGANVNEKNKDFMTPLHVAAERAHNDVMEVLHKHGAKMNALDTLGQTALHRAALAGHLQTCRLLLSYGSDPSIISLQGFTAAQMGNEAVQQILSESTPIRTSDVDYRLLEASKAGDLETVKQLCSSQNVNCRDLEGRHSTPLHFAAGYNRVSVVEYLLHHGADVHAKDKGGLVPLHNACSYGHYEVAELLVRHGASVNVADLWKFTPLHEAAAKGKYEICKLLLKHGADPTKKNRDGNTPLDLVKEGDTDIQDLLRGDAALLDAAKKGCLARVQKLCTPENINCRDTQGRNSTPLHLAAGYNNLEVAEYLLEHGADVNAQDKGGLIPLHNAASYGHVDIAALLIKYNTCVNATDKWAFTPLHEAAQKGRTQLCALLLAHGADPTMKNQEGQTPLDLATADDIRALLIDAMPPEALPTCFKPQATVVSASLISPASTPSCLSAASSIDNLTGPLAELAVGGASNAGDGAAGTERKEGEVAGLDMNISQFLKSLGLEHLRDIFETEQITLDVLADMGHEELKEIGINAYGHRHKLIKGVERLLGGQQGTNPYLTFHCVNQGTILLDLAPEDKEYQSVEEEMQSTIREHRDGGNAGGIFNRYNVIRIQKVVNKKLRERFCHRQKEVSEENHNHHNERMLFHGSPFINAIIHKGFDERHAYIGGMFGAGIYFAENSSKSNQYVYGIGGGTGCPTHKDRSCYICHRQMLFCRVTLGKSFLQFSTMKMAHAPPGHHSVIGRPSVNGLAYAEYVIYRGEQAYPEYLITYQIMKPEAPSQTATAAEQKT
The experiment is described as follows: Analysis of activity of tankyrase 1 (Trevigen kit, ELISA absorbance at 450 nm). It is filed as biochemical.
Settings: not given
As to the method:
Activities of novel compounds synthesized according to Examples 1 to 72 against tankyrase 1 were analyzed using a Trevigen kit (Cat. No. 4700-096-K). Poly PAR histone protein-coated 96-well plate, anti-PAR monoclonal antibody and goat anti-mouse IgG-HRP were used for measurement of absorbance by ELISA method. Specifically, 20× I-PAR assay buffer was diluted to 1× by adding water, and 50 μL of the diluted buffer was added to each well of the 96-well plate followed by reacting at rt for 30 min. Then, the supernatant was completely removed from each well and 10 μL of 1× I-PAR assay buffer and 15 μL of assay substrate were added to each well along with 1 μL of a 50× solution of inhibitors to be tested, which were the compounds obtained in the Examples 1 to 72. 10 mUnits/μL of tankyrase 1 enzyme was diluted 50-fold with 1× I-PAR assay buffer and 25 μL of the diluted enzyme was added to each well and reacted while stirring at rt for 30 min. One without any compound of the present invention was used as a positive control and another containing 1× I-PAR assay buffer with the same volume instead of tankyrase 1 enzyme was used as a negative control. Upon completion of the reaction, 200 μL of PBSX, which was prepared by adding 0.1% triton X-100 to PBS, was added and removed and this washing process was repeated twice. Washing was repeated twice more using PBS in the same manner. 5× antibody diluent was diluted with distilled water to 1× concentration, 50 μL of the diluted goat anti-mouse IgG-HRP to 1/2000 was added to each well and reacted while stirring at rt for 30 min. Washes were carried out twice using PBSX and PBS, respectively. After adding 50 μL of TACS-sapphire to each well of the plate, the plate was blocked from light to react for 10 min to 15 min and the color of the reaction solution turned blue. To stop the reaction, 50 μL of 0.2N HCl was added to turn the solution yellow. Finally, the absorbance of the resulting solution was measured at 450 nm.
On the technique in general: ELISA stands for enzyme-linked immunosorbent assay.
For the compound `Cn1nnc2c(=O)[nH]c(N3CCN(c4ccccc4F)CC3)nc21` [compound 1, 5-(4-(2-Fluorophenyl)piperazin-1-yl)-3-methyl-3H-[1,2,3]triazolo[4,5-d]pyrimidin-7(6H)-one], the IC50 (usually the concentration that inhibits the measured activity by half) amounted to 66.7 nM.

The compound `COCCOc1cc(F)c(N2CCN(c3nc4c(nnn4C)c(=O)[nH]3)CC2)c(F)c1` [compound 2, 5-(4-(2,6-Difluoro-4-(2-methoxyethoxy)phenyl)piperazin-1-yl)-3-methyl-3H-[1,2,3]triazolo[4,5-d]pyrimidin-7(6H)-one] gave an IC50 of 29.9 nM.

`CC(C)Oc1cc(F)c(N2CCN(c3nc4c(nnn4C)c(=O)[nH]3)CC2)c(F)c1` [compound 9, 5-(4-(2,6-Difluoro-4-isopropoxyphenyl)piperazin-1-yl)-3-methyl-3H-[1,2,3]triazolo[4,5-d]pyrimidin-7(6H)-one] displayed an IC50 of 60.9 nM.

Take `Cn1nnc2c(=O)[nH]c(N3CCN(c4c(F)cc(OC5COC5)cc4F)CC3)nc21` [compound 15, 5-(4-(2,6-Difluoro-4-(oxetan-3-yloxy)phenyl)piperazin-1-yl)-3-methyl-3H-[1,2,3]triazolo[4,5-d]pyrimidin-7(6H)-one]: it took 24.7 nM to reach half-maximal inhibition (IC50).

`Cn1nnc2c(=O)[nH]c(N3CCN(c4c(F)cccc4F)CC3)nc21` [compound 21, 5-(4-(2,6-Difluorophenyl)piperazin-1-yl)-3-methyl-3H-[1,2,3]triazolo[4,5-d]pyrimidin-7(6H)-one] returned an IC50 of 8.9 nM.

The same experiment, now with this note: tankyrase 1 enzyme, Trevigen kit Cat. No. 4700-096-K, 30 min at rt; read-out: TNKS1 (IC50).
Turning to `Cn1nnc2c(=O)[nH]c(N3CCN(c4c(F)cc(OCc5ccccc5)cc4F)CC3)nc21` [compound 3, 5-(4-(4-(Benzyloxy)-2,6-difluorophenyl)piperazin-1-yl)-3-methyl-3H-[1,2,3]triazolo[4,5-d]pyrimidin-7(6H)-one], the IC50 is 207 nM.

Regarding `Cn1nnc2c(=O)[nH]c(N3CCN(c4c(F)cc(OCCN5CCOCC5)cc4F)CC3)nc21` [compound 4, 5-(4-(2,6-Difluoro-4-(2-morpholinoethoxy)phenyl)piperazin-1-yl)-3-methyl-3H-[1,2,3]triazolo[4,5-d]pyrimidin-7(6H)-one], the half-maximal inhibitory concentration (IC50) stood at 38.6 nM.

Turning to `Cn1nnc2c(=O)[nH]c(N3CCN(c4c(F)cc(OCCN5CCCCC5)cc4F)CC3)nc21` [compound 5, 5-(4-(2,6-Difluoro-4-(2-(piperidin-1-yl)ethoxy)phenyl)piperazin-1-yl)-3-methyl-3H-[1,2,3]triazolo[4,5-d]pyrimidin-7(6H)-one], the half-maximal inhibitory concentration (IC50) worked out at 14.2 nM.

On to `CN(C)CCOc1cc(F)c(N2CCN(c3nc4c(nnn4C)c(=O)[nH]3)CC2)c(F)c1` [compound 6, 5-(4-(4-(2-(Dimethylamino)ethoxy)-2,6-difluorophenyl)piperazin-1-yl)-3-methyl-3H-[1,2,3]triazolo[4,5-d]pyrimidin-7(6H)-one], for which the IC50 was 16.3 nM.

Consider `Cn1nnc2c(=O)[nH]c(N3CCN(c4c(F)cc(OCCO)cc4F)CC3)nc21` [compound 7, 5-(4-(2,6-Difluoro-4-(2-hydroxyethoxy)phenyl)piperazin-1-yl)-3-methyl-3H-[1,2,3]triazolo[4,5-d]pyrimidin-7(6H)-one], for which the IC50 is 44 nM.

Turning to `CC(=O)OCCOc1cc(F)c(N2CCN(c3nc4c(nnn4C)c(=O)[nH]3)CC2)c(F)c1` [compound 8, 2-(3,5-Difluoro-4-(4-(3-methyl-7-oxo-6,7-dihydro-3H-[1,2,3]triazolo[4,5-d]pyrimidin-5-yl)piperazin-1-yl)phenoxy)ethyl acetate], the IC50 was found to be 46.9 nM.

In the case of `C[C@@H](N)C(=O)OCCOc1cc(F)c(N2CCN(c3nc4c(nnn4C)c(=O)[nH]3)CC2)c(F)c1` [compound 10, (R)-2-(3,5-difluoro-4-(4-(3-methyl-7-oxo-6,7-dihydro-3H-[1,2,3]triazolo[4,5-d]pyrimidin-5-yl)piperazin-1-yl)phenoxy)ethyl2-aminopropanoate hydrochloride], the IC50 was found to be 32 nM.

For the compound `C[C@H](N)C(=O)OCCOc1cc(F)c(N2CCN(c3nc4c(nnn4C)c(=O)[nH]3)CC2)c(F)c1` [compound 11, (S)-2-(3,5-difluoro-4-(4-(3-methyl-7-oxo-6,7-dihydro-3H-[1,2,3]triazolo[4,5-d]pyrimidin-5-yl)piperazin-1-yl)phenoxy)ethyl2-aminopropanoate hydrochloride], the IC50 was determined as 14.5 nM.

For the compound `Cn1nnc2c(=O)[nH]c(N3CCN(c4c(F)cc(OCC(O)CO)cc4F)CC3)nc21` (stereo not drawn) [compound 12, 5-(4-(4-(2,3-Dihydroxypropoxy)-2,6-difluorophenyl)piperazin-1-yl)-3-methyl-3H-[1,2,3]triazolo[4,5-d]pyrimidin-7(6H)-one], the half-inhibitory concentration (IC50) is 12.9 nM.

`Cn1nnc2c(=O)[nH]c(N3CCN(c4c(F)cc(CN5CCOCC5)cc4F)CC3)nc21` [compound 13, 5-(4-(2,6-Difluoro-4-(morpholinomethyl)phenyl)piperazin-1-yl)-3-methyl-3H-[1,2,3]triazolo[4,5-d]pyrimidin-7(6H)-one]: the half-inhibitory concentration (IC50) came out at 28 nM.

Turning to `CN1CCN(Cc2cc(F)c(N3CCN(c4nc5c(nnn5C)c(=O)[nH]4)CC3)c(F)c2)CC1` [compound 14, 5-(4-(2,6-Difluoro-4-((4-methylpiperazin-1-yl)methyl)phenyl)piperazin-1-yl)-3-methyl-3H-[1,2,3]triazolo[4,5-d]pyrimidin-7(6H)-one], the IC50 was determined as 41.5 nM.

For `Cn1nnc2c(=O)[nH]c(N3CCN(c4c(F)cc(OC(CO)CCl)cc4F)CC3)nc21` (stereo not drawn) [compound 16, 5-(4-(4-(1-Chloro-3-hydroxypropan-2-yloxy)-2,6-difluorophenyl)piperazin-1-yl)-3-methyl-3H-[1,2,3]triazolo[4,5-d]pyrimidin-7(6H)-one], the IC50 is 28.6 nM.

As for `CC(O)c1cc(F)c(N2CCN(c3nc4c(nnn4C)c(=O)[nH]3)CC2)c(F)c1` (stereo not drawn) [compound 17, 5-(4-(2,6-Difluoro-4-(1-hydroxyethyl)phenyl)piperazin-1-yl)-3-methyl-3H-[1,2,3]triazolo[4,5-d]pyrimidin-7(6H)-one], the IC50 stood at 17.6 nM.

Consider `COC(C)c1cc(F)c(N2CCN(c3nc4c(nnn4C)c(=O)[nH]3)CC2)c(F)c1` (stereo not drawn) [compound 18, 5-(4-(2,6-Difluoro-4-(1-methoxyethyl)phenyl)piperazin-1-yl)-3-methyl-3H-[1,2,3]triazolo[4,5-d]pyrimidin-7(6H)-one], for which the IC50 turned out to be 30 nM.

As to `Cn1nnc2c(=O)[nH]c(N3CCN(c4c(F)cc(OCCCCCC(=O)O)cc4F)CC3)nc21` [compound 19, 6-(3,5-Difluoro-4-(4-(3-methyl-7-oxo-6,7-dihydro-3H-[1,2,3]triazolo[4,5-d]pyrimidin-5-yl)piperazin-1-yl)phenoxy)hexanoic acid], the 50% inhibitory concentration (IC50) was 80 nM.

On to `COCCN(C)Cc1cc(F)c(N2CCN(c3nc4c(nnn4C)c(=O)[nH]3)CC2)c(F)c1` [compound 20, 5-(4-(2,6-Difluoro-4-(((2-methoxyethyl)(methyl)amino)methyl)phenyl)piperazin-1-yl)-3-methyl-3H-[1,2,3]triazolo[4,5-d]pyrimidin-7(6H)-one], for which the IC50 is 83.1 nM.
